Reference: PMC11081424 (Protein Science : A Publication of the Protein Society, 2024)

Molecular target: T1, TPARED (Comamonas sp., UniProt Q3C1E0)
T1 sequence (Q3C1E0 1-336): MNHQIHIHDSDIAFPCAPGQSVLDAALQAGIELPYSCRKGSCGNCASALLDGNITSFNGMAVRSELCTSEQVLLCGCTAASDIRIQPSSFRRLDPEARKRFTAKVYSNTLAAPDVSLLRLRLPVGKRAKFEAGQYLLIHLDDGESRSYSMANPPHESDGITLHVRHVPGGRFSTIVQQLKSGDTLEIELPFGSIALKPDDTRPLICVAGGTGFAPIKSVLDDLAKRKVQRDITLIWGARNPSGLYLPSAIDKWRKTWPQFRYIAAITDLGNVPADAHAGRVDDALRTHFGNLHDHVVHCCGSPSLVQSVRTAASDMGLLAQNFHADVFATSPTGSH
Assay: FAD released by acid denaturation, UV/vis at […] nm
Type: binding
Conditions: as purified, three purifications

## Cc1cc2nc3c(=O)[nH]c(=O)nc-3n(C[C@H](O)[C@H](O)[C@H](O)COP(=O)(O)OP(=O)(O)OC[C@H]3O[C@@H](n4cnc5c(N)ncnc54)[C@H](O)[C@@H]3O)c2cc1C [FAD]
  equivalents of FAD per protein: 0.95 ± 0.08 equivalents
